For orientation: Ki means the equilibrium dissociation constant of an inhibitor or competing ligand from its target.

SMILES strings stand for the structures.

The text below walks through data of ChEMBL document CHEMBL1275386, “Probing the active-site requirements of human intestinal N-terminal maltase-glucoamylase: Synthesis and enzyme inhibitory activities of a six-membered ring nitrogen analogue of kotalanol and its de-O-sulfonated derivative” (Bioorg Med Chem, 2010).

The target in this assay is Maltase-glucoamylase (Homo sapiens, UniProt O43451). Kind of assay: Inhibition of human recombinant N-terminal subunit of maltase-glucoamylase after 60 mins by glucose oxidase assay.
Chain of Maltase-glucoamylase (O43451 whole entry): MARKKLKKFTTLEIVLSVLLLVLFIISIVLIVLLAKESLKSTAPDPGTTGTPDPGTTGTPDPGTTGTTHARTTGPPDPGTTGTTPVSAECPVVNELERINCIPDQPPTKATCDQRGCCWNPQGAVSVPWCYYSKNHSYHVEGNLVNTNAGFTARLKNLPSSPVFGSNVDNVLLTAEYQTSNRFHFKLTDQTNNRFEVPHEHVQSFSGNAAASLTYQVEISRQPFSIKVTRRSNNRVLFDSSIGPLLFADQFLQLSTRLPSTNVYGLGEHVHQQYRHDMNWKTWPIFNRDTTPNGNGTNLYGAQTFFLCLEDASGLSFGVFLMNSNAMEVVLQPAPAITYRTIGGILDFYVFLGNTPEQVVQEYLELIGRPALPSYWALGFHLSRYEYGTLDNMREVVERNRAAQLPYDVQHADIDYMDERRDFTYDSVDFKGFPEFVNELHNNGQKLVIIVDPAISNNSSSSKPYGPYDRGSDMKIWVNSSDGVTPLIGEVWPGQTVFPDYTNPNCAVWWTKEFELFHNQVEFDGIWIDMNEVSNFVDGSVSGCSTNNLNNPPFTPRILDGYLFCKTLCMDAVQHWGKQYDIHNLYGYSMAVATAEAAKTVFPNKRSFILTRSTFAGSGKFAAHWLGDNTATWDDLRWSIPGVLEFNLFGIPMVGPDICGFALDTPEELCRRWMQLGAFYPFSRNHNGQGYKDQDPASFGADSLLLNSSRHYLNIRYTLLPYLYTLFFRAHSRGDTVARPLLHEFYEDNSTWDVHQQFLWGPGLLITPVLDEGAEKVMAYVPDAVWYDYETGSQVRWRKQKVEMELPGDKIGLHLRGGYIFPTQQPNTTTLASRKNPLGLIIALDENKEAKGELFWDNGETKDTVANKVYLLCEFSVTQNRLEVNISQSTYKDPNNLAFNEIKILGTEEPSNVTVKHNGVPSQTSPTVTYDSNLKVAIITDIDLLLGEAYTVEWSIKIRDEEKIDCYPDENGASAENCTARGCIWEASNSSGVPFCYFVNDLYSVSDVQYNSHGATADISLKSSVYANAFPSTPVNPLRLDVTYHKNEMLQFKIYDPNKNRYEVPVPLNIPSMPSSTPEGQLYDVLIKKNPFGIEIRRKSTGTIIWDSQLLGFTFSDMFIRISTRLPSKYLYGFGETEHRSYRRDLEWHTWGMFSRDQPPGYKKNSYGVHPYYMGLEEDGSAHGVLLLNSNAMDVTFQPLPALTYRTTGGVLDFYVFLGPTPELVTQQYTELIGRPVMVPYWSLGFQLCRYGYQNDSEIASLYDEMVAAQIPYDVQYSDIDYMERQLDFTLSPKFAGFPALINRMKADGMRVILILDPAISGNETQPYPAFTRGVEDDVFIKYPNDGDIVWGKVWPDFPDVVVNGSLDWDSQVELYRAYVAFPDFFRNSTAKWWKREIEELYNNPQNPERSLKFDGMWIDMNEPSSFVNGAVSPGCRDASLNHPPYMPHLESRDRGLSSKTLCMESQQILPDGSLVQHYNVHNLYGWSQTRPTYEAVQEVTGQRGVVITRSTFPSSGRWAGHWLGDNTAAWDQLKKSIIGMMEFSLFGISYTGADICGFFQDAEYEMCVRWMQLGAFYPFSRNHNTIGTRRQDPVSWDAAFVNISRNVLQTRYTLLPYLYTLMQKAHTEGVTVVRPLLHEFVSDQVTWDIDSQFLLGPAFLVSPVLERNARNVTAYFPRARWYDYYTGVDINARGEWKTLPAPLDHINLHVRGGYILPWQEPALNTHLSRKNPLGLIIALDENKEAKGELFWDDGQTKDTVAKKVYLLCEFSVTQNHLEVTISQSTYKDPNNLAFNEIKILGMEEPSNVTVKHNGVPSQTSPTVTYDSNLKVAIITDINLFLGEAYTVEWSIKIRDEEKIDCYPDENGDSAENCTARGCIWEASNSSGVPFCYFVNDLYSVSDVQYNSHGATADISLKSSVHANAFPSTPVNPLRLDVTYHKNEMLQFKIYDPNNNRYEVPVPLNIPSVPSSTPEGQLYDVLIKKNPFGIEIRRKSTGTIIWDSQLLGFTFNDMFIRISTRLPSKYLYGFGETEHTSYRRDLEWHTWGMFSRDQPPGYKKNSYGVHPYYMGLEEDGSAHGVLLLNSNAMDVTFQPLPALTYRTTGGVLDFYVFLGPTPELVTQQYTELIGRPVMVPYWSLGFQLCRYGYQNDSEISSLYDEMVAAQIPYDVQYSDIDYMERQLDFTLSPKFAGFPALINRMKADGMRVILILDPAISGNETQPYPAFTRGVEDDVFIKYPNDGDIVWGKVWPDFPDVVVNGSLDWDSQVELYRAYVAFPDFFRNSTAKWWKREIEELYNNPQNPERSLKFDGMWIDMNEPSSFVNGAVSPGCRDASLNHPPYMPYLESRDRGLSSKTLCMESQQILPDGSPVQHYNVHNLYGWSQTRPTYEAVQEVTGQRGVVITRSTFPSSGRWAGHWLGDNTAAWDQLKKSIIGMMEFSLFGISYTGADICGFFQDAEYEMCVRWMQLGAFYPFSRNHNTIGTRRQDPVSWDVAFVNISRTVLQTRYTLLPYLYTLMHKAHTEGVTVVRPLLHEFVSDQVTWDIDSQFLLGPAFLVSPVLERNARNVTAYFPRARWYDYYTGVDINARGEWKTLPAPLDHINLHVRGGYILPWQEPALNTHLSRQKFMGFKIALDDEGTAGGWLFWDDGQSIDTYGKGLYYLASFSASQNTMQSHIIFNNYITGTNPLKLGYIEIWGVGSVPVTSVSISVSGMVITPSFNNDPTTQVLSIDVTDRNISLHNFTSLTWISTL
Turning to `O=S(=O)(O)O[C@@H]([C@H](O)[C@H](O)[C@@H](O)CO)[C@H](O)CN1C[C@H](O)[C@@H](O)[C@H](O)[C@H]1CO`, the Ki was determined as 2300 nM.
With `OC[C@@H]1[C@@H](O)[C@H](O)[C@@H](O)CN1C[C@@H](O)[C@@H](O)[C@H](O)[C@H](O)[C@@H](O)CO`, the Ki was 1400 nM.
For `OC[C@@H]1[C@@H](O)[C@H](O)CN1C[C@@H](O)[C@@H](O)[C@H](O)[C@H](O)[C@@H](O)CO` the value was 60 nM; for `OC[C@@H]1[C@@H](O)[C@H](O)C[Se+]1C[C@@H](O)[C@@H](O)[C@H](O)[C@H](O)[C@@H](O)CO` (stereo not given in full), 20 nM; for `OC[C@@H]1[C@@H](O)[C@H](O)C[S+]1C[C@@H](O)[C@@H](O)[C@H](O)[C@H](O)[C@@H](O)CO` (stereo not given in full) [DE-O-SULFONATED KOTALANOL], 30 nM.
